Experiments:
HCT116 cells = test: Antiproliferative MTS assay, HCT116 cells, 72 h; assay type: cell-based, human; conditions: 72 h compound incubation
Procedure: (§1) For evaluation of cell death and viability, cells were plated in 96-well plates at 5 × 10^3 cells/well for next-day treatments. MTS metabolism was evaluated as an indicator of cell viability using CellTiter 96® AQueous non-radioactive cell proliferation assay (Promega, Madison, WI, USA), according to the manufacturer’s instructions. Changes in absorbance were measured at 490 nm using a GloMax®-MultiDetection System (Promega). General cell death was evaluated using the ToxiLight^TM BioAssay Kit (Lonza Walkersville Inc., Walkersville, MD, USA), by determining the quantities of adenylate kinase (AK) released from cells with permeabilized plasma membranes and present in the extracellular medium. The bioluminescent signals were recorded using also the GloMax®-MultiDetection System.
(§2) The primary drug screen was performed using the HCT116 and HT29 cell lines. Cells were seeded in 96-well plates at 5 × 10^3 cells/well and 24 h after, exposed to Ru-TRZ compounds and derivatives at a range of concentrations from 0.012 to 243 μM. Cell proliferation was assessed 72 h later using the MTS assay. As a secondary screen, selected hits were tested using HT29, HepG2, and AML12 wild-type cells seeded in 96-well plates at 5 × 10^3 cells/well. In the following day, cells were exposed to selected compounds at the same range of concentrations for additional 24 h. Cell death was evaluated by the ToxiLight assay. All measurements were performed in duplicate. The half-maximal effective concentration (EC50) and half-maximal inhibitory concentration (IC50) were calculated using the GraphPad Prism Software version 8.0.2 (GraphPad Software, Inc., San Diego, CA, USA) with the log (inhibitor) versus response (variable slope) function.

HT29 cells [1] = test: Antiproliferative MTS assay, HT29 cells, 72 h; assay type: cell-based, human; conditions: 72 h compound incubation
Procedure: as §1, §2

HT29 cells [2] = test: Cytotoxicity by AK release (ToxiLight), HT29 cells, 24 h; assay type: cell-based, human
Procedure: as §1
(§3) The primary drug screen was performed using the HCT116 and HT29 cell lines. […] Cell proliferation was assessed 72 h later using the MTS assay. […] Cell death was evaluated by the ToxiLight assay. […] The half-maximal effective concentration (EC50) and half-maximal inhibitory concentration (IC50) were calculated using the GraphPad Prism Software version 8.0.2 (GraphPad Software, Inc., San Diego, CA, USA) with the log (inhibitor) versus response (variable slope) function.

HepG2 cells = test: Cytotoxicity by AK release (ToxiLight), HepG2 cells, 24 h; assay type: cell-based, human; conditions: 24 h compound incubation
Procedure: as §1, §3

AML12 cells = test: Cytotoxicity by AK release (ToxiLight), AML12 hepatocytes, 24 h; assay type: cell-based, mouse; conditions: 24 h compound incubation
Procedure: as §1, §3

HT29 cells [3] = test: Mitochondrial transmembrane potential (JC-1); assay type: cell-based, human; conditions: 2 h
Procedure: JC-1 (Sigma-Aldrich) is a cationic dye that represents a reliable fluorescent probe for the assessment of mitochondrial transmembrane potential (ΔΨm). […] HT29 or AML12 cells were plated on a 96-well plate at 5 × 10^3 cells/well and on the next day treated with Ru-TRZ compounds (1 and 5 µM) for 2 h. Carbonyl cyanide m-chlorophenyl hydrazone (CCCP), a mitochondrial depolarizing agent, was used as positive control (200 µM; 4 h). Emitted fluorescence was measured at 530 nm and 590 nm using the GloMax®-MultiDetection System (Promega) and the ratio 590/530 emission intensity was calculated.

[4] = test system: caspase-3/7 activity in HT29 cells; test: Caspase-Glo 3/7 assay; assay type: cell-based, human; conditions: 10 µM, 24 h, p < 0.001
Procedure: To determine caspase-3/7 activity, HT29 cells were seeded in 96-well plates at 5 ×10^3 cells/well. Twenty-four hours later, cells were incubated with 10 µM Ru-TRZ, or vehicle control, for additional 24 h. Caspase-3 and -7 activation status was measured using the Caspase-Glo® 3/7 Assay (Promega), according to the manufacturer’s instructions. The luminescent signal was recorded using the GloMax®-MultiDetection System (Promega).

HT29 cells [5] = test: Mitochondrial ROS production (MitoSOX Red); assay type: cell-based, human; conditions: 10 µM, 15 min
Procedure: Mitochondrial superoxide abundance was quantified by fluorometric quantification. Briefly, HT29 or AML12 cells were plated on a 96-well plate at 5 ×10^3 cells/well and on the next day treated with 10 µM Ru-TRZ, or vehicle control, for additional 15 min. MitoSOX™ Red (Invitrogen, Thermo Fisher Scientific) diluted 1:1000 in HBSS was added (100 μL per well) and incubated at 37 °C in a CO2 incubator for 10 min. Cells were then washed with PBS to remove the excess of dye and fluorescence intensity was measured using a Varioskan™ LUX multimode microplate reader (Thermo Scientific) with excitation and emission wavelengths of 510 and 580 nm, respectively. Fluorescence values were normalized by the cell mass content.

HT29 cells [6] = test: Drug combination study (IC50, combination index, CompuSyn); assay type: cell-based, human; conditions: combinations at 1:1 ratio
Procedure: In drug combination studies, cells were incubated with TRZ2 combined with 5-fluorouracil (5-FU), oxaliplatin (OXA), and irinotecan (IRI) chemotherapeutics (kindly provided by Hospital Santa Maria, Lisbon, Portugal) at a ratio of 1:1. The effect of combined treatments was evaluated using the CompuSyn software 1.0 (ComboSyn, Inc. and PD Science, LLC). Briefly, the combination index (CI) is a tool to analyze the interaction between drugs allowing to distinguish between synergistic, additive, and antagonistic effects. CI values are calculated considering the concentration of drugs in combination to produce a specific effect (Fraction affected—Fa) and the concentration of drugs to produce that same effect individually. The final CI value is calculated by the average of CI values at Fa 50, 75, 90, and 95%. CI value < 1 indicates synergism while a CI value > 1 indicates antagonism. Fa-CI plot between the levels of different fractions affected against the CI values was also created using CompuSyn software to interpret the type of interactions between TRZ2 and chemotherapeutic drugs. The data points below the additivity line (CI = 1) indicate synergism.

HT29 cells [7] = test: TSZ (TNF-α + Z-VAD + BV6)-induced necroptosis, AK release; assay type: cell-based, human; conditions: Nec-1 30 μM, GSK872 10 μM, 24 h
Procedure: As positive control for necroptosis induction, HT29 cells were treated with 20 ng/mL recombinant human TNF-α (#300-01A, PeproTech EC Ltd., London, UK), 10 μM Z-Val-Ala-Asp-fluoromethylketon (Z-VAD-FMK or Z-VAD) pan-caspase inhibitor (#ALX-260-020, Enzo Life Sciences, Farmingdale, NY, USA), and 250 nM BV6 Smac mimetic (#B4653, ApexBio, Houston, USA), L929 cells were treated with 10 ng/mL recombinant murine TNF-α (#315-01 A, PeproTech), and HepG2 cells were treated with 10 μM doxorubicin (DOXO) (#D1515, Sigma-Aldrich). […]
as §1

[8] = Homo sapiens, HT-29, 24 h incubation

## N#Cc1ccc(NC(=O)COCCOCCOCCN=[N+]=[N-])cc1.O=S(=O)([O-])C(F)(F)F.[Ru+2].c1cc[cH-]c1.c1ccc(P(CCP(c2ccccc2)c2ccccc2)c2ccccc2)cc1 [TRZ8]
HCT116 cells
  IC50: 0.46 µM
HT29 cells [1]
  IC50: 0.27 µM

## CCCC(=O)Nc1ccc(C#N)cc1.O=S(=O)([O-])C(F)(F)F.c1cc[cH-]c1.c1ccc([P]2(c3ccccc3)CC[P](c3ccccc3)(c3ccccc3)[Ru+2]2)cc1 [TRZ7]
HCT116 cells
  IC50: 0.55 µM
HT29 cells [1]
  IC50: 0.36 µM
HT29 cells [2]; 10 µM, 24 h, partially reverted by Z-VAD, Nec-1 and GSK872
  Cell death (AK release): high levels of cell death
HT29 cells [2]; AK release, 24 h compound incubation
  EC50: 15200 nM
HepG2 cells
  EC50: 16800 nM
AML12 cells
  EC50: 40200 nM
HT29 cells [3]; 1 µM, JC-1, p < 0.05
  Loss of ΔΨm: significant loss of ΔΨm
HT29 cells [3]; 5 µM, JC-1, CCCP 200 µM 4 h as positive control
  Loss of ΔΨm: loss of ΔΨm similar to the one induced by CCCP
[4]
  Increase in caspase-3/7 activity: up to 4 fold
HT29 cells [5]
  Increase of mitochondrial ROS: ~3 fold

## O=C1[O][Pt]2([NH][C@@H]3CCCC[C@H]3[NH]2)[O]C1=O [OX, oxaliplatin]
HT29 cells [6]; 24 h incubation
  IC50: 10800 nM

## CCc1c2c(nc3ccc(OC(=O)N4CCC(N5CCCCC5)CC4)cc13)-c1cc3c(c(=O)n1C2)COC(=O)[C@]3(O)CC [IRI, irinotecan]
HT29 cells [6]; [8]
  IC50: 44000 nM

## CN(C)N=Nc1ccc(C#N)cc1.O=S(=O)([O-])C(F)(F)F.c1cc[cH-]c1.c1ccc([P]2(c3ccccc3)CC[P](c3ccccc3)(c3ccccc3)[Ru+2]2)cc1 [TRZ5]
HCT116 cells
  IC50: 0.22 µM
HT29 cells [1]
  IC50: 0.31 µM

## CN(N=Nc1ccc(C#N)cc1)C(=O)c1ccccc1.O=S(=O)([O-])C(F)(F)F.[Ru+2].c1cc[cH-]c1.c1ccc(P(CCP(c2ccccc2)c2ccccc2)c2ccccc2)cc1 [TRZ4]
HCT116 cells
  IC50: 0.55 µM
HT29 cells [1]
  IC50: 0.23 µM

## O=c1[nH]cc(F)c(=O)[nH]1 [5-FU, 5-fluorouracil]
HT29 cells [6]; [8]
  IC50: 30000 nM

## N#Cc1ccc(NC(=O)CCOCCOCCOCCN)cc1.O=S(=O)([O-])C(F)(F)F.[Ru+2].c1cc[cH-]c1.c1ccc(P(CCP(c2ccccc2)c2ccccc2)c2ccccc2)cc1 [TRZ6]
HCT116 cells
  IC50: 2.42 µM
HT29 cells [1]
  IC50: 3.54 µM

## CN1C(=O)C(Cc2c[nH]c3ccccc23)NC1=S (centres unmarked) [Nec-1, Necrostatin-1]
HT29 cells [7]
  Effect on TSZ-induced cell damage (AK release): rescued

## CC(C)S(=O)(=O)c1ccc2nccc(Nc3ccc4scnc4c3)c2c1 [GSK872]
HT29 cells [7]
  Effect on TSZ-induced cell damage (AK release): significantly decreased TSZ-induced AK release
